Reference: PubChem BioAssay AID1259411 (Chemical Carcinogenesis Research Information System (CCRIS), 2018)
Active and inactive are the calls of the source. No rule for the calls is given here.

System: rodent carcinogenicity bioassays, tumor incidence
Test: CCRIS carcinogenicity studies
Source text: The CCRIS database contains chemical records with carcinogenicity, mutagenicity, tumor promotion, and tumor inhibition test results. It was developed by the National Cancer Institute (NCI). Data are derived from studies cited in primary journals, current awareness tools, NCI reports, and other sources. Test results have been reviewed by experts in carcinogenesis and mutagenesis.
CCRIS provides historical information from the years 1985 - 2011. It is no longer updated.
This is an archive assay for CCRIS carcinogenicity studies.

**Q.** With `O=C(O)CCCc1ccc(N(CCCl)CCCl)cc1` as the molecule, how does the carcinogen call (Species: HUMAN, Route: ORAL, Tumor Site: Type of Lesion: HEMATOPOIETIC SYSTEM (LEUKEMIA)) read?
**A.** active; positive

**Q.** And the carcinogen call (Species: MOUSE, Strain/Sex: BALB/FEMALE, Route: INTRAGASTRIC, Dose: 0, 1 MG/KG SUSPENDED IN WATER 5/WK FOR 12 WK (STUDY DURATION: 120 WK), Tumor Site: Type of Lesion: LUNG: ADENOMA)?
**A.** active; positive

**Q.** And the carcinogen call (Species: MOUSE, Strain/Sex: BALB/FEMALE, Route: INTRAGASTRIC, Dose: 0, 1 MG/KG SUSPENDED IN WATER 5/WK FOR 12 WK (STUDY DURATION: 120 WK), Tumor Site: Type of Lesion: LYMPHORETICULAR SYSTEM: TUMOR)?
**A.** active; positive

**Q.** And the carcinogen call (Species: MOUSE, Strain/Sex: BALB/FEMALE, Route: INTRAGASTRIC, Dose: 0, 1 MG/KG SUSPENDED IN WATER 5/WK FOR 12 WK (STUDY DURATION: 120 WK), Tumor Site: Type of Lesion: MAMMARY GLAND: ADENOMA OR ADENOCANTHOMA)?
**A.** active; positive

**Q.** And the carcinogen call (Species: MOUSE, Strain/Sex: BALB/MALE, Route: INTRAGASTRIC, Dose: 0, 1 MG/KG SUSPENDED IN WATER 5/WK FOR 12 WK (STUDY DURATION: 120 WK), Tumor Site: Type of Lesion: LUNG: ADENOMA)?
**A.** active; positive

**Q.** What about the carcinogen call (Species: MOUSE, Strain/Sex: BALB/MALE, Route: INTRAGASTRIC, Dose: 0, 1 MG/KG SUSPENDED IN WATER 5/WK FOR 12 WK (STUDY DURATION: 120 WK), Tumor Site: Type of Lesion: LYMPHORETICULAR SYSTEM: TUMOR) of the same molecule?
**A.** active; positive

**Q.** And the carcinogen call (Species: MOUSE, Strain/Sex: STRAIN-A/MALE,FEMALE, Route: INTRAPERITONEAL, Dose: 9.6, 37, 150, 420 MG/KG (TOTAL DOSES) IN 0.5% ACACIA OR 0.01% TRICAPRYLIN SOLN 3/WK FOR 4 WK, Dose: 9.6, 37, 150, 420 MG/KG (TOTAL DOSES) IN 0.5% ACACIA OR 0.01% TRICAPRYLIN SOLN 3/WK FOR 4 WK, Tumor Site: Type of Lesion: LUNG: ADENOMA, ADENOCARCINOMA)?
**A.** active; positive

**Q.** And the carcinogen call (Species: MOUSE, Strain/Sex: SWISS/FEMALE, Route: INTRAPERITONEAL, Dose: 1.5, 3.0 MG/KG 3/WK FOR 6 MO, Tumor Site: Type of Lesion: LUNG: ADENOMA, LYMPHATIC SYSTEM: LYMPHOSARCOMA, OVARIES, Tumor Site: Type of Lesion: LUNG: ADENOMA, LYMPHATIC SYSTEM: LYMPHOSARCOMA, OVARIES)?
**A.** active; positive

**Q.** What about the carcinogen call (Species: MOUSE, Strain/Sex: SWISS/MALE, Route: INTRAPERITONEAL, Dose: 1.5, 3.0 MG/KG 3/WK FOR 6 MO, Tumor Site: Type of Lesion: HEMATOPOIETIC SYSTEM (LEUKEMIA), LYMPHATIC SYSTEM: LYMPHOSARCOMA, LUNG: ADENOMA, Tumor Site: Type of Lesion: HEMATOPOIETIC SYSTEM (LEUKEMIA), LYMPHATIC SYSTEM: LYMPHOSARCOMA, LUNG: ADENOMA) of the same molecule?
**A.** active; positive

**Q.** What about the carcinogen call (Species: RAT, Strain/Sex: CD-1/MALE, Route: INTRAPERITONEAL, Dose: 2.2, 4.5 MG/KG 3/WK FOR 6 MO, Tumor Site: Type of Lesion: HEMATOPOIETIC SYSTEM (LEUKEMIA), LYMPHATIC SYSTEM: LYMPHOSARCOMA, RETICULAR CELL SARCOMA) of the same molecule?
**A.** active; positive

**Q.** And the carcinogen call (Species: RAT, Strain/Sex: SPRAGUE-DAWLEY/FEMALE, Route: GAVAGE, Dose: 0, 3 MG/KG ADMINISTERED 1, 2, 4.5 OR 9 TIMES PER MO FOR 18 MO TO GIVE MEDIAN TOTAL DOSES OF 54, 108, 234, 425 MG/KG (STU, Dose: 0, 3 MG/KG ADMINISTERED 1, 2, 4.5 OR 9 TIMES PER MO FOR 18 MO TO GIVE MEDIAN TOTAL DOSES OF 54, 108, 234, 425 MG/KG (STU, Tumor Site: Type of Lesion: MAMMARY GLAND: TUMOR, NERVOUS SYSTEM: TUMOR, EAR CANAL: TUMOR, Tumor Site: Type of Lesion: MAMMARY GLAND: TUMOR, NERVOUS SYSTEM: TUMOR, EAR CANAL: TUMOR)?
**A.** active; positive

**Q.** Which results are given for `CC(C)C=O`?
**A.** carcinogen call (Species: MOUSE, Strain/Sex: B6C3F1/FEMALE, Route: INHALATION, Dose: 0, 500, 1000, 2000 PPM 6 HR/D 5 D/WK FOR 105 WK (STUDY DURATION: 105 WK), Dose: 0, 500, 1000, 2000 PPM 6 HR/D 5 D/WK FOR 105 WK (STUDY DURATION: 105 WK)): inactive; negative; carcinogen call (Species: MOUSE, Strain/Sex: B6C3F1/MALE, Route: INHALATION, Dose: 0, 500, 1000, 2000 PPM 6 HR/D 5 D/WK FOR 105 WK (STUDY DURATION: 105 WK), Dose: 0, 500, 1000, 2000 PPM 6 HR/D 5 D/WK FOR 105 WK (STUDY DURATION: 105 WK)): inactive; negative; carcinogen call (Species: RAT, Strain/Sex: F344/FEMALE, Route: INHALATION, Dose: 0, 500, 1000, 2000 PPM 6 HR/D 5 D/WK FOR 105 WK (STUDY DURATION: 105 WK), Dose: 0, 500, 1000, 2000 PPM 6 HR/D 5 D/WK FOR 105 WK (STUDY DURATION: 105 WK)): inactive; negative; carcinogen call (Species: RAT, Strain/Sex: F344/MALE, Route: INHALATION, Dose: 0, 500, 1000, 2000 PPM 6 HR/D 5 D/WK FOR 105 WK (STUDY DURATION: 105 WK), Dose: 0, 500, 1000, 2000 PPM 6 HR/D 5 D/WK FOR 105 WK (STUDY DURATION: 105 WK)): inactive; negative

**Q.** `Nc1ccc(S(=O)(=O)c2ccc(N)cc2)cc1` was tested. Which carcinogen call (Species: MOUSE, Strain/Sex: B6C3F1/FEMALE, Route: ORAL, Dose: 0, 500, 1000 PPM IN DIET FOR 78 WK (STUDY DURATION: 105-108 WK), Dose: 0, 500, 1000 PPM IN DIET FOR 78 WK (STUDY DURATION: 105-108 WK)) did it give?
**A.** inactive; negative

**Q.** What about the carcinogen call (Species: MOUSE, Strain/Sex: B6C3F1/MALE, Route: ORAL, Dose: 0, 500, 1000 PPM IN DIET FOR 78 WK (STUDY DURATION: 105-106 WK), Dose: 0, 500, 1000 PPM IN DIET FOR 78 WK (STUDY DURATION: 105-106 WK)) of the same molecule?
**A.** inactive; negative

**Q.** And the carcinogen call (Species: RAT, Strain/Sex: BDIV/MALE,FEMALE, Route: GAVAGE, Dose: 100 MG/KG TO MOTHERS DURING PREGNANCY AND DURING WEANING, 52 G/KG (TOTAL DOSE) TO OFFSPRING AFTER WEANING, Tumor Site: Type of Lesion: THYROID GLAND: MALIGNANT C CELL TUMOR)?
**A.** active; positive

**Q.** What about the carcinogen call (Species: RAT, Strain/Sex: F344/FEMALE, Route: ORAL, Dose: 0, 600, 1200 PPM IN DIET FOR 78 WK (STUDY DURATION: 105-106 WK), Dose: 0, 600, 1200 PPM IN DIET FOR 78 WK (STUDY DURATION: 105-106 WK)) of the same molecule?
**A.** inactive; negative

**Q.** And the carcinogen call (Species: RAT, Strain/Sex: F344/FEMALE, Route: ORAL, Dose: 0, 600, 1200 PPM IN DIET FOR 78 WK (STUDY DURATION: 105 WK), Dose: 0, 600, 1200 PPM IN DIET FOR 78 WK (STUDY DURATION: 105 WK))?
**A.** inactive; negative

**Q.** And the carcinogen call (Species: RAT, Strain/Sex: F344/MALE, Route: ORAL, Dose: 0, 600, 1200 PPM IN DIET FOR 78 WK (STUDY DURATION: 104-106 WK), Dose: 0, 600, 1200 PPM IN DIET FOR 78 WK (STUDY DURATION: 104-106 WK), Tumor Site: Type of Lesion: SPLEEN: FIBROMA OR FIBROSARCOMA OR SARCOMA (NOS), PERITONEAL CAVITY: FIBROSARCOMA, SARCOMA (NOS))?
**A.** active; positive

**Q.** And the carcinogen call (Species: RAT, Strain/Sex: F344/MALE, Route: ORAL, Dose: 0, 600, 1200 PPM IN DIET FOR 78 WK (STUDY DURATION: 105 WK), Dose: 0, 600, 1200 PPM IN DIET FOR 78 WK (STUDY DURATION: 105 WK), Tumor Site: Type of Lesion: SPLEEN OR PERITONEUM: SARCOMA)?
**A.** active; positive

**Q.** And the carcinogen call (Species: RAT, Strain/Sex: WISTAR/MALE, Route: ORAL, Dose: 0.025% INCREASED TO 0.3% BY THIRD MO, Tumor Site: Type of Lesion: MULTIPLE SITES)?
**A.** active; positive

**Q.** With `NCC(=O)O` as the molecule, how does the carcinogen call (Species: RAT, Strain/Sex: F344/FEMALE, Route: ORAL, Dose: 0, 2.5, 5% IN DRINKING WATER FOR 108 WK (STUDY DURATION: 108 WK), Dose: 0, 2.5, 5% IN DRINKING WATER FOR 108 WK (STUDY DURATION: 108 WK)) read?
**A.** inactive; negative

**Q.** And the carcinogen call (Species: RAT, Strain/Sex: F344/MALE, Route: ORAL, Dose: 0, 2.5, 5% IN DRINKING WATER FOR 108 WK (STUDY DURATION: 108 WK), Dose: 0, 2.5, 5% IN DRINKING WATER FOR 108 WK (STUDY DURATION: 108 WK))?
**A.** inactive; negative
